Laboratory results: patent US12552747B2, “Amino acid derivative containing non-steroidal anti-inflammatory drug structure and preparation method and application thereof” (priority 2020, dated 2026)
Marks after values point to notes of the source that are not given here.

Legend:
[1] = system: Cervical cancer Hela cells; experiment: In vitro antitumor activity test (MTT), Hela; format: cell-based; conditions: Homo sapiens, 24 h
Protocol: (§1) 13 human tumor cell lines were selected and cultured in RPMI-1640 medium (Gibco company) containing 10% inactivated fetal bovine serum, 100 U/ml penicillin and 100 U/ml streptomycin, cultured at 37° C. in a 5% CO2 incubator, and passaged once every 2 days. Using the MTT method, cells in the logarithmic growth phase were digested with 0.25% trypsin, centrifuged at 1000 r/min for 5 min, 8×10^3 cells were added to each well, and seeded in a 96-well plate, and 180 μl of cell suspension was added to each well, and a blank was set at the same time. The 96-well plate inoculated with tumor cells was placed in a carbon dioxide incubator for 24 hours, and then 20 μl of the drug was added, and an equal volume of culture medium was added to the blank control well, and the drug was divided into 8 concentrations from 50 μg/L to 0.4 μg/L. Three duplicate wells were set for each drug concentration and placed in an incubator for 24 h. 10 μl of MTT solution (5 mg/ml) was added to each well, and the culture was continued for 4 h. The supernatant was aspirated and discarded, 100 μl of dimethyl sulfoxide (DMSO) solution was added to each well, placed on a micro shaker for 10 min, and the absorbance (A value) was measured at a wavelength of 492 nm in a microplate reader, and the inhibition rate of the drug on tumor cells was calculated according to the following formula.
(§2) In this test, the IC50 value of the compound on tumor cells was calculated by the Origin software according to the inhibition rate of the compound. AC-201 in the following table was the abbreviation of PL-AC-201, and so on.

human red blood cells = experiment: Detection of hemolytic activity; format: cell-based
Protocol: 2-3 ml of human blood was drawn using an anticoagulant tube, thoroughly mixed, and kept at 4° C. for later use. 2 ml of blood was aspirated and added with 2-3 ml of PBS, followed by gently pipetting and centrifugation for 5 min at 1000 rpm, which was repeated 3-4 times. After the last centrifugation, PBS was aspirated, PBS was added to 40 ml (20 times the volume), and the number of blood cells at this time was 2×10^8 cells/ml. The red blood cell suspension was added to the plate (U-shaped 96-well plate), and 70 μl/well was used as a negative well. Only PBS was added to blank wells, 140 μl/well. 2 ml of the red blood cell suspension was centrifuged, PBS was discarded, 2 ml of pure water was added, mixed well, and 140 μl/well was used as a positive well. The diluted polypeptide solutions of different concentrations were added to the plate, 70 μl/well. Incubated at 37° C., 87 rpm, shaken for 2h, centrifuged for 5 min at 3000 rpm. The OD value measured by microplate reader: After centrifugation, 90 μl of supernatant was drawn and transferred to a flat-bottom 96-well plate, and the OD value at 578 nm was measured by microplate reader. ODtest-OD negative >0.1 (the first concentration that met the conditions was MHC).

[2] = system: Liver cancer HepG-2 cells; experiment: In vitro antitumor activity test (MTT), HepG-2; format: cell-based; conditions: Homo sapiens, HepG2; Liver cancer HepG-2, MTT, 24 h
Protocol: as §1, §2

[3] = system: Pancreatic cancer Bxpc-3 cells; experiment: In vitro antitumor activity test (MTT), Bxpc-3; format: cell-based; conditions: Homo sapiens; Pancreatic cancer Bxpc-3, MTT, 24 h
Protocol: as §1, §2

Colon cancer HT29 cells = experiment: In vitro antitumor activity test (MTT), HT29; format: cell-based; conditions: Homo sapiens, HT-29, 24 h
Protocol: as §1, §2

Melanoma B16 cells = experiment: In vitro antitumor activity test (MTT), B16; format: cell-based; conditions: 24 h
Protocol: as §1, §2

[4] = system: 13 human tumor cell lines; experiment: Average IC50 over the tumor cell lines (MTT); format: cell-based; conditions: mean IC50 for each tumor, read-out: AverageIC50
Protocol: as §1, §2
The ratio of the hemolytic concentration MHC of the compound to the mean IC50 for each tumor was referred to as the therapeutic index (TI). The safety of the compound was evaluated by the therapeutic index. The higher the therapeutic index, the greater the safety range of the compound.

Lung cancer H1299 cells = experiment: In vitro antitumor activity test (MTT), H1299; format: cell-based; conditions: Homo sapiens, NCI-H1299, 24 h
Protocol: as §1, §2

Bel-7402 liver tumors = experiment: Transplanted tumor in nude mice, intraperitoneal, Bel-7402; format: in vivo, BALB/c nude mice; conditions: 8 administrations
Protocol: (§3) BALB/c nude mice were used to inoculate Bel-7402, HepG-2 and SK-hep1 liver tumors according to the transplanted tumor research method under aseptic operation, and the cell density was not less than 5×10^6/ml, 0.2 ml was inoculated subcutaneously in the axilla of the right hind limb of each mouse. After the cells were inoculated, the cells were administered intraperitoneally (concentration: 5 mg/kg), once every 3 days, for a total of 8 administrations. After the 2nd day of drug withdrawal, all tumor-bearing mice were sacrificed, and their body weight, tumor weight and tumor inhibition were weighed.

[5] = system: Liver cancer Bel-7402 cells; experiment: In vitro antitumor activity test (MTT), Bel-7402; format: cell-based; conditions: Homo sapiens; Liver cancer Bel-7402, MTT, 24 h
Protocol: as §1, §2

Lung cancer H460 cells = experiment: In vitro antitumor activity test (MTT), H460; format: cell-based; conditions: Homo sapiens, NCI-H460, 24 h
Protocol: as §1, §2

HepG-2 liver tumors = experiment: Transplanted tumor in nude mice, intraperitoneal, HepG-2; format: in vivo, BALB/c nude mice; conditions: 8 administrations
Protocol: as §3

Lung cancer A549 cells = experiment: In vitro antitumor activity test (MTT), A549; format: cell-based; conditions: Homo sapiens, 24 h
Protocol: as §1, §2

[6] = system: Liver cancer SK-hep1 cells; experiment: In vitro antitumor activity test (MTT), SK-hep1; format: cell-based; conditions: Homo sapiens, 24 h
Protocol: as §1, §2

[7] = system: Breast cancer MCF-7 cells; experiment: In vitro antitumor activity test (MTT), MCF-7; format: cell-based; conditions: Homo sapiens, MCF7; Breast cancer MCF-7, MTT, 24 h
Protocol: as §1, §2

Lung cancer H292 cells = experiment: In vitro antitumor activity test (MTT), H292; format: cell-based; conditions: Homo sapiens, NCI-H292, 24 h
Protocol: as §1, §2

[8] = Acute toxicity test of single administration to ICR mice; conditions: mouse, in vivo, intravenous, single tail vein injection, observed 7 days
Protocol: ICR mice, 18-22 g, were raised in a common-grade animal room, fed with common feed, and ingested freely. The group distance and dose were determined after exploring the Dm and Dn of the compounds of the examples. Five concentrations of the compounds of the examples were formulated at the desired dose. The corresponding doses of drugs were injected into the tail vein according to body weight, and the blank control group was injected with normal saline. Immediately after administration, the performance and death of each animal were observed and recorded, and the possible toxic reaction or death of animals within 7 days after a single administration was observed and recorded.

[9] = system: Human osteosarcoma MG63 cells; experiment: In vitro antitumor activity test (MTT), MG63; format: cell-based; conditions: MG-63, 24 h
Protocol: as §1, §2

SK-hep1 liver tumors = experiment: Transplanted tumor in nude mice, intraperitoneal, SK-hep1; format: in vivo, BALB/c nude mice; conditions: 8 administrations
Protocol: as §3

[10] = Bel-7402, 5 mg/kg i.p. once every 3 days
[11] = HepG-2, 5 mg/kg i.p. once every 3 days
[12] = SK-hep1, 5 mg/kg i.p. once every 3 days

## CC1(C)CC(NC(=O)C(Cc2ccc(-c3ccccc3)cc2)NC(=O)c2cc3ccccc3n2Cc2ccccc2)CC(C)(C)N1 (centres unmarked) [PL-AC-15, reference compound]
[1]
  IC50: 19.7 nM
Human red blood cells; hemolytic concentration, in nM
  MHC: 1.6e+06 nM
Human red blood cells; human red blood cells, 37° C., 2h, first concentration with ODtest-OD negative >0.1
  MHC: 1000 µg/mL
[2]
  IC50: 16.2 nM
[3]
  IC50: 48.9 nM
Colon cancer HT29 cells
  IC50: 38.2 nM
Melanoma B16 cells
  IC50: 30.5 nM
[4]
  IC50: 32 nM
Lung cancer H1299 cells
  IC50: 24.4 nM
Bel-7402 liver tumors; [10]
  Tumor inhibition rate: 61.8** %
  Tumor weight: 302.9 ± 0.8 mg
Bel-7402 liver tumors; Bel-7402 tumor-bearing BALB/c mice, 5 mg/kg i.p. once every 3 days
  Body Weight After administration: 25.2 ± 1.1 g
[5]
  IC50: 81.7 nM
Lung cancer H460 cells
  IC50: 22 nM
HepG-2 liver tumors; [11]
  Tumor inhibition rate: 66.7** %
  Tumor weight: 549.9 ± 10.2 mg
HepG-2 liver tumors; HepG-2 tumor-bearing BALB/c mice, 5 mg/kg i.p. once every 3 days
  Body Weight After administration: 23.8 ± 1.0 g
Lung cancer A549 cells
  IC50: 31.2 nM
[6]
  IC50: 26.4 nM
[7]
  IC50: 23.2 nM
Lung cancer H292 cells
  IC50: 28.3 nM
[8]
  LD50 at 7 days: 23.6 mg/kg
[9]
  IC50: 25.8 nM
SK-hep1 liver tumors; [12]
  Tumor inhibition rate: 60.6** %
  Tumor weight: 441.5 ± 10.8 mg
SK-hep1 liver tumors; SK-hep1 tumor-bearing BALB/c mice, 5 mg/kg i.p. once every 3 days
  Body Weight After administration: 23.2 ± 0.3 g
